The record followed here is US10138260B2, “Compounds of phosphinanes and azaphosphinanes, a process for their preparation and pharmaceutical compositions containing them” (LES LABORATOIRES SERVIER, priority 2016, dated 2018).

The target of this test is T1, TAFIa (Homo sapiens, UniProt Q96IY4).
T1 sequence (Q96IY4 115-423): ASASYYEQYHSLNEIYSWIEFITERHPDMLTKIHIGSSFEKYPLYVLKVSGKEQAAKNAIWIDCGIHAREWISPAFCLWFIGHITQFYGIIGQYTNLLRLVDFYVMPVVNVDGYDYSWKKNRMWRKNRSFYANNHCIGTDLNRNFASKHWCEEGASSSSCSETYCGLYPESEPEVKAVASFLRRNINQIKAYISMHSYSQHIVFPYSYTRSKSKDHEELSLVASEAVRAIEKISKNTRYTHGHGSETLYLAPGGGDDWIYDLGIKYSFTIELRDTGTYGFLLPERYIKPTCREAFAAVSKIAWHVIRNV
The test is described as follows: Inhibition of TAFIa (hippuryl-Arg test). As to conditions: TAFIa 2 nM, hippuryl-arginine 5 mM, 45 minutes, relative to control containing the carrier; for inhibition at 0.01 µM: compound at 10 nM; for inhibition at 0.02 µM: compound at 20 nM. It is filed as biochemical. On the procedure: Human TAFI (4 nM) is incubated with human thrombin (10 nM) and human thrombomodulin (5 nM) in the presence of calcium (10 mM). After incubation for 20 minutes, the activation reaction is stopped by addition of PPACK (1 μM final), an irreversible thrombin inhibitor.
The reactions take place in Hepes buffer (25 mM Hepes, 137 mM NaCl, 3.5 mM KCl)+0.1% bovine albumin, pH 7.4 at 28° C. and with stirring.
The test compound is added to the solution of TAFIa (2 nM) and incubated for 45 minutes in the presence of hippuryl-arginine (5 mM). The reaction is stopped by addition of hydrochloric acid (1M) neutralised subsequently with sodium hydroxide (1M), and then the mixture is buffered with disodium hydroxyphosphate (1M pH 7.4). […] The reaction mixture is stirred (vortex) and then centrifuged. The supernatant is transferred to a 96-well microplate, and the absorbance is measured using a spectrophotometer at 405 nm (Spectramax plus, Molecular Devices).
The OD value of a well containing the reagents without TAFI is subtracted from all the OD values measured. The percentage inhibition of TAFIa at a given concentration of the test compound is determined by means of the following formula: % inhibition=100−[(OD compound×100)/OD carrier]
The compounds are evaluated at 10 nM and 20 nM under the experimental conditions described above and the results are expressed as the percentage inhibition relative to a control containing the carrier in the absence of compound.

Where a name gives a salt, the structure may show the parent alone.

`Cn1cc(-c2cc(F)ccc2CN2CCP(=O)(O)[C@](CCCCN)(C(=O)O)C2)cn1` [Example 212, (3S)-3-(4-AMINOBUTYL)-1-[4-FLUORO-2-(1-METHYL-1H-PYRAZOL-4-YL)BENZYL]-4-HYDROXY-4-OXO-1,4-AZAPHOSPHINANE-3-CARBOXYLIC ACID]: testing at 0.01 µM gave an inhibition of 62% and testing at 0.02 µM gave an inhibition of 86%.
In the same order, the values of `NCCCC[C@@]1(C(=O)O)CN(Cc2ccc(F)cc2-c2nccs2)CCP1(=O)O` [Example 245, (3S)-3-(4-AMINOBUTYL)-1-[[4-FLUORO-2-(1,3-THIAZOL-2-YL)PHENYL]METHYL]-4-HYDROXY-4-OXO-1,4-AZAPHOSPHINANE-3-CARBOXYLIC ACID] are 38% and 52%.
The corresponding values for `Cn1cncc1-c1cc(O)ccc1CN1CCP(=O)(O)[C@](CCCCN)(C(=O)O)C1` [Example 246, (3S)-3-(4-Aminobutyl)-4-hydroxy-1-[[4-hydroxy-2-(3-methylimidazol-4-yl)phenyl]methyl]-4-oxo-1,4-azaphosphinane-3-carboxylic acid, hydrobromide] are 72% and 86%.
In the same order, the values of `NCCCC[C@@]1(C(=O)O)CN(Cc2ccc(F)cc2-c2ccc(F)c(O)c2)CCP1(=O)O` [Example 251, (3S)-3-(4-AMINOBUTYL)-1-[[4-FLUORO-2-(4-FLUORO-3-HYDROXYPHENYL)-PHENYL]METHYL]-4-HYDROXY-4-OXO-1,4-AZAPHOSPHINANE-3-CARBOXYLIC ACID] are 70% and 90%.
As to `NCCCCC1(C(=O)O)CN(Cc2ccccc2-c2cnc3ccccn23)CCP1(=O)O` (stereo not shown) [Example 167, 3-(4-AMINOBUTYL)-4-HYDROXY-1-[(2-IMIDAZO[1,2-A]PYRIDIN-3-YLPHENYL)-METHYL]-4-OXO-1,4-AZAPHOSPHINANE-3-CARBOXYLIC ACID], the inhibition – broadly, the drop in the measured response relative to a control, in per cent – at 0.01 µM was 61% and testing at 0.02 µM gave an inhibition of 67%.
In the same order, the values of `NCCCCC1(C(=O)O)CN(Cc2ccccc2-c2ccc3ccccc3c2)CCP1(=O)O` (stereo not shown) [Example 50, 3-(4-AMINOBUTYL)-4-HYDROXY-1-[(2-NAPHTHALEN-2-YLPHENYL)METHYL]-4-OXO-1,4-AZAPHOSPHINANE-3-CARBOXYLIC ACID] are 53% and 66%.
In the same order, the values of `NCCCC[C@@]1(C(=O)O)CN(Cc2ccccc2-c2ccc(F)cc2)CCP1(=O)O` [Example 197, (3S)-3-(4-AMINOBUTYL)-1-[[2-(4-FLUOROPHENYL)PHENYL]METHYL]-4-HYDROXY-4-OXO-1,4-AZAPHOSPHINANE-3-CARBOXYLIC ACID] are 60% and 78%.
The corresponding values for `NCCCCC1(C(=O)O)CN(Cc2ccccc2-c2ccc3c(c2)OCO3)CCP1(=O)O` (stereo not shown) [Example 164, 3-(4-AMINOBUTYL)-1-[[2-(1,3-BENZODIOXOL-5-YL)PHENYL]METHYL]-4-HYDROXY-4-OXO-1,4-AZAPHOSPHINANE-3-CARBOXYLIC ACID] are 66% and 87%.
`NCCCC[C@@]1(C(=O)O)CN(Cc2ccc(F)cc2-c2cccc(F)c2)CCP1(=O)O` [Example 226, (3S)-3-(4-AMINOBUTYL)-1-[[4-FLUORO-2-(3-FLUOROPHENYL)PHENYL]METHYL]-4-HYDROXY-4-OXO-1,4-AZAPHOSPHINANE-3-CARBOXYLIC ACID] gave an inhibition at 0.01 µM of 71% and an inhibition at 0.02 µM of 88%.
The corresponding values for `NCCCCC1(C(=O)O)CN(Cc2ccccc2-c2cc(Cl)ccc2Cl)CCP1(=O)O` (stereo not shown) [Example 48, 3-(4-AMINOBUTYL)-1-[[2-(2,5-DICHLOROPHENYL)PHENYL]METHYL]-4-HYDROXY-4-OXO-1,4-AZAPHOSPHINANE-3-CARBOXYLIC ACID] are 45% and 54%.
`CC(C)c1ccccc1CN1CCP(=O)(O)C(CCCCN)(C(=O)O)C1` (stereo not shown) [Example 174, 3-(4-AMINOBUTYL)-4-HYDROXY-4-OXO-1-[(2-PROPAN-2-YLPHENYL)METHYL]-1,4-AZAPHOSPHINANE-3-CARBOXYLIC ACID] returned an inhibition at 0.01 µM of 43% and an inhibition at 0.02 µM of 51%.
